Laboratory results as given in ChEMBL document CHEMBL1153245, “A profile of the in vitro anti-tumor activity of imidazolium-based ionic liquids” (2010).

What was measured:
Assay type in all cases: functional
RXF 393 [1] = test: Anticancer activity against human RXF393 cells assessed cell growth at 10 uM after 48 hrs by sulforhodamine B assay relative to control
SN12C = test: Anticancer activity against human SN12C cells assessed cell growth at 10 uM after 48 hrs by sulforhodamine B assay relative to control
MCF7 = test: Anticancer activity against human MCF7 cells assessed cell growth at 10 uM after 48 hrs by sulforhodamine B assay relative to control
MDA-MB-231 = test: Anticancer activity against human MDA-MB-231 cells assessed cell growth at 10 uM after 48 hrs by sulforhodamine B assay relative to control
HL-60(TB) = test: Anticancer activity against human HL-60(TB) cells after 48 hrs by sulforhodamine B assay; details: Homo sapiens, HL-60, 48 h
K562 = test: Anticancer activity against human K562 cells after 48 hrs by sulforhodamine B assay; details: Homo sapiens, K562, 48 h
[2] = Anticancer activity against human […] cells after 48 hrs by sulforhodamine B assay; details: Homo sapiens, RPMI8266, 48 h
EKVX = test: Anticancer activity against human EKVX cells after 48 hrs by sulforhodamine B assay; details: Homo sapiens, EKVX, 48 h
HOP-62 = test: Anticancer activity against human HOP62 cells after 48 hrs by sulforhodamine B assay; details: Homo sapiens, HOP-62, 48 h
HOP-92 = test: Anticancer activity against human HOP92 cells after 48 hrs by sulforhodamine B assay; details: Homo sapiens, HOP-92, 48 h
NCI-H322M [3] = test: Anticancer activity against human NCI-H322M cells after 48 hrs by sulforhodamine B assay; details: Homo sapiens, NCI-H322M, 48 h
NCI-H522 = test: Anticancer activity against human NCI-H522 cells after 48 hrs by sulforhodamine B assay; details: Homo sapiens, NCI-H522, 48 h
HCT-15 = test: Anticancer activity against human HCT15 cells after 48 hrs by sulforhodamine B assay; details: Homo sapiens, HCT-15, 48 h
SNB-19 = test: Anticancer activity against human SNB19 cells after 48 hrs by sulforhodamine B assay; details: Homo sapiens, SNB-19, 48 h
LOX IMVI = test: Anticancer activity against human LOXIMVI cells after 48 hrs by sulforhodamine B assay; details: Homo sapiens, LOX IMVI, 48 h
MOLT-4 = test: Anticancer activity against human MOLT4 cells assessed cell growth at 10 uM after 48 hrs by sulforhodamine B assay relative to control
NCI-H23 = test: Anticancer activity against human NCI-H23 cells assessed cell growth at 10 uM after 48 hrs by sulforhodamine B assay relative to control
NCI-H322M [4] = test: Anticancer activity against human NCI-H322M cells assessed cell growth at 10 uM after 48 hrs by sulforhodamine B assay relative to control
SW-620 = test: Anticancer activity against human SW620 cells assessed cell growth at 10 uM after 48 hrs by sulforhodamine B assay relative to control
SF-539 = test: Anticancer activity against human SF539 cells assessed cell growth at 10 uM after 48 hrs by sulforhodamine B assay relative to control
SNB-75 = test: Anticancer activity against human SNB75 cells assessed cell growth at 10 uM after 48 hrs by sulforhodamine B assay relative to control
Malme-3M = test: Anticancer activity against human MALME-3M cells assessed cell growth at 10 uM after 48 hrs by sulforhodamine B assay relative to control
SK-MEL-5 [5] = test: Anticancer activity against human SK-MEL-5 cells assessed cell growth at 10 uM after 48 hrs by sulforhodamine B assay relative to control
UACC-62 = test: Anticancer activity against human UACC62 cells assessed cell growth at 10 uM after 48 hrs by sulforhodamine B assay relative to control
OVCAR-5 = test: Anticancer activity against human OVCAR5 cells assessed cell growth at 10 uM after 48 hrs by sulforhodamine B assay relative to control
M14 = test: Anticancer activity against human M14 cells after 48 hrs by sulforhodamine B assay; details: Homo sapiens, M14, 48 h
SK-MEL-28 = test: Anticancer activity against human SK-MEL-28 cells after 48 hrs by sulforhodamine B assay; details: Homo sapiens, SK-MEL-28, 48 h
SK-MEL-5 [6] = test: Anticancer activity against human SK-MEL-5 cells after 48 hrs by sulforhodamine B assay; details: Homo sapiens, SK-MEL-5, 48 h
UACC-257 = test: Anticancer activity against human UACC257 cells after 48 hrs by sulforhodamine B assay; details: Homo sapiens, UACC-257, 48 h
OVCAR-4 = test: Anticancer activity against human OVCAR4 cells after 48 hrs by sulforhodamine B assay; details: Homo sapiens, OVCAR-4, 48 h
SK-OV-3 = test: Anticancer activity against human SKOV3 cells after 48 hrs by sulforhodamine B assay; details: Homo sapiens, SK-OV-3, 48 h
786-0 = test: Anticancer activity against human 786-0 cells after 48 hrs by sulforhodamine B assay; details: Homo sapiens, 786-0, 48 h
A498 = test: Anticancer activity against human A498 cells after 48 hrs by sulforhodamine B assay; details: Homo sapiens, A498, 48 h
ACHN = test: Anticancer activity against human ACHN cells after 48 hrs by sulforhodamine B assay; details: Homo sapiens, ACHN, 48 h
RXF 393 [7] = test: Anticancer activity against human RXF393 cells after 48 hrs by sulforhodamine B assay; details: Homo sapiens, RXF 393, 48 h
UO-31 = test: Anticancer activity against human UO31 cells after 48 hrs by sulforhodamine B assay; details: Homo sapiens, UO-31, 48 h
DU-145 = test: Anticancer activity against human DU145 cells after 48 hrs by sulforhodamine B assay; details: Homo sapiens, DU-145, 48 h
NCI/ADR-RES = test: Anticancer activity against human NCI/ADR-RES cells after 48 hrs by sulforhodamine B assay; details: Homo sapiens, NCI/ADR-RES, 48 h
[8] = Anticancer activity against human Hs 578T cells after 48 hrs by sulforhodamine B assay; details: Homo sapiens, Hs-578T, 48 h
MDA-MB-435 = test: Anticancer activity against human MDA-MB-435 cells after 48 hrs by sulforhodamine B assay; details: Homo sapiens, MDA-MB-435, 48 h
BT-549 = test: Anticancer activity against human BT549 cells after 48 hrs by sulforhodamine B assay; details: Homo sapiens, BT-549, 48 h
[9] = read-out: LC50 (the source's name)

Q: Which results are given for CCCCCCCCCCCCCCCCCC[n+]1ccn(C)c1.FC(F)(F)C(F)(F)[P-](F)(F)(F)(C(F)(F)C(F)(F)F)C(F)(F)C(F)(F)F?
A: Activity (RXF 393 [1]): -44.46%; Activity (SN12C): -75.69%; Activity (MCF7): 2.61%; Activity (MDA-MB-231): -73.64%; GI50 (HL-60(TB)): 0.238 µM; CC50 (HL-60(TB); [9]): > 100 µM; GI50 (K562): 0.238 µM; CC50 (K562; [9]): > 100 µM; GI50 [2]: 0.086 µM; CC50 [2, 9]: > 100 µM; GI50 (EKVX): 0.346 µM; CC50 (EKVX; [9]): 8.91 µM; GI50 (HOP-62): 0.39 µM; CC50 (HOP-62; [9]): 6.09 µM; GI50 (HOP-92): 0.211 µM; CC50 (HOP-92; [9]): 22 µM; GI50 (NCI-H322M [3]): 0.406 µM; LC50 (NCI-H322M [3]): 5.54 µM; GI50 (NCI-H522): 0.285 µM; LC50 (NCI-H522): 4.32 µM; GI50 (HCT-15): 0.309 µM; CC50 (HCT-15; [9]): 4.41 µM; GI50 (SNB-19): 0.422 µM; CC50 (SNB-19; [9]): 3.95 µM; GI50 (LOX IMVI): 0.164 µM; CC50 (LOX IMVI; [9]): 0.678 µM; Activity (MOLT-4): 17.16%; Activity (NCI-H23): -62.26%; Activity (NCI-H322M [4]): 5.98%; Activity (SW-620): -25.6%; Activity (SF-539): -80.42%; Activity (SNB-75): -47.53%; Activity (Malme-3M): -51.72%; Activity (SK-MEL-5 [5]): -77.4%; Activity (UACC-62): -73.94%; Activity (OVCAR-5): -56.76%; GI50 (M14): 0.402 µM; LC50 (50% lethal concentration) (M14): > 100 µM; GI50 (SK-MEL-28): 0.374 µM; LC50 (SK-MEL-28): 3.98 µM; GI50 (SK-MEL-5 [6]): 0.313 µM; CC50 (SK-MEL-5 [6]; [9]): 3.31 µM; GI50 (UACC-257): 0.523 µM; LC50 (UACC-257): 9.71 µM; GI50 (OVCAR-4): 0.32 µM; CC50 (OVCAR-4; [9]): > 100 µM; GI50 (SK-OV-3): 0.355 µM; CC50 (SK-OV-3; [9]): 3.83 µM; GI50 (786-0): 0.425 µM; LC50 (50% lethal concentration) (786-0): 5.36 µM; GI50 (A498): 0.371 µM; CC50 (A498; [9]): 3.39 µM; GI50 (ACHN): 0.281 µM; LC50 (ACHN): 3.55 µM; GI50 (RXF 393 [7]): 0.93 µM; LC50 (RXF 393 [7]): 8.31 µM; GI50 (UO-31): 0.365 µM; LC50 (UO-31): 5.31 µM; GI50 (DU-145): 0.495 µM; CC50 (DU-145; [9]): 4.43 µM; GI50 (NCI/ADR-RES): 0.412 µM; LC50 (NCI/ADR-RES): 12.5 µM; GI50 [8]: 0.287 µM; CC50 [8, 9]: 5.43 µM; GI50 (MDA-MB-435): 0.344 µM; CC50 (MDA-MB-435; [9]): 2.93 µM; GI50 (BT-549): 0.334 µM; CC50 (BT-549; [9]): 4.2 µM
